# Earlier results as cited in patent publication US20220288147A1, “GINSENG COMPOSITION AND USE THEREOF AS A MEDICAMENT” (BOTALYS SA, priority 2019, published 2022).
# Settings: oral
row,Absorption rates of an orally administered dose,Compound
1,≥ 0.1%,CC(C)=CCC[C@](C)(O[C@@H]1O[C@H](CO)[C@@H](O)[C@H](O)[C@H]1O)[C@H]1CC[C@]2(C)[C@@H]1[C@H](O)C[C@@H]1[C@@]3(C)CC[C@H](O)C(C)(C)[C@@H]3[C@@H](O[C@@H]3O[C@H](CO)[C@@H](O)[C@H](O)[C@H]3O)C[C@]12C [Rg1]
2,≥ 1.9%,CC(C)=CCC[C@](C)(O)[C@H]1CC[C@]2(C)[C@@H]1[C@H](O)C[C@@H]1[C@@]3(C)CC[C@H](O)C(C)(C)[C@@H]3[C@@H](O[C@@H]3O[C@H](CO)[C@@H](O)[C@H](O)[C@H]3O[C@@H]3O[C@@H](C)[C@H](O)[C@@H](O)[C@H]3O)C[C@]12C [Rg2]
